According to patent US20050130909A1 (priority 2002, published 2005):
Values joined by “and” are separate entries in the source; they are usually repeats but may differ in a detail not shown here. Identical values can stand only once. Like-named read-outs stand apart in the source and are kept apart here.

Assays:
[1] = system: skin and soft tissue infections (SSTI); test: Phase II SSTI trial: clinical response (success = cure or improvement); format: in vivo, human; conditions: for Clinical success rate at FU, patients with MRSA: MITT population; for Clinical success rate, exploratory subanalysis: patients with deep or complicated SSTI at baseline
Experimental: This randomized, controlled study evaluated the safety and efficacy of two dose regimens of dalbavancin.
There were 62 patients randomized into the study; all received at least one dose of study medication. Four study populations were evaluated for safety and efficacy and were defined as follows: The intent-to-treat (ITT) population included all patients who received at least one dose of study drug (all randomized study subjects).
The effectiveness of the three treatment regimens was determined by assessing the patients' clinical response and the documented or presumed microbiological responses. The primary efficacy endpoint was clinical response at the follow-up visit for the clinically evaluable population. Clinical response, for both EOT and FU visits, was categorized as success (cure or improvement) or failure (including indeterminate results). Patients classified as successes must not have received additional systemic antibacterial treatment for their infection. Failure was defined as persistence of one or more local or systemic signs and symptoms of SSTI such that treatment with new or additional systemic antibacterial agents was required for the SSTI.

Group B streptococcus = test: Dalbavancin MIC of baseline pathogens; format: cell-based; conditions: baseline isolates, MITT
From the text: (§1) The most common pathogen was S. aureus.

[2] = system: Miscellaneous Streptococcus and nontypeable strains; test: Dalbavancin MIC of baseline pathogens; format: cell-based; conditions: baseline isolates, MITT
From the text: as §1

S. aureus = test: Dalbavancin MIC of baseline pathogens; format: cell-based; conditions: baseline isolates, MITT
From the text: as §1

Streptococcus pyogenes = test: Dalbavancin MIC of baseline pathogens; format: cell-based; conditions: baseline isolates, MITT
From the text: as §1

[3] = system: Gram-positive isolates, including MRSA; test: Dalbavancin MIC of trial isolates; format: cell-based; conditions: isolates that persisted after treatment
[4] = Pharmacokinetics and renal excretion in healthy subjects; format: in vivo, human
Experimental: Blood samples were drawn into heparinized tubes and centrifuged. Plasma was separated and stored frozen at −20° C. until time of assay. Plasma and urine samples were assayed for dalbavancin using validated LC/MS/MS methods. […] The peak concentration (Cmax) values were obtained directly from the observed data. The area under the plasma concentration-time curve (AUC) was calculated using the linear trapezoidal rule. Clearance (CL) was computed as dose/AUC. The elimination half life (t1/2) was estimated by linear regression of the log-linear portion of the log concentration versus time curve. Estimates of the volume of distribution (VZ) was calculated using the regression parameters, while the volume of distribution at steady state (Vss) was calculated from the area under the first moment curve (AUMC) multiplied by the dose and divided by AUC. The cumulative amount of dalbavancin excreted in urine was determined as the integrand of the urine excretion rate (AURC). CLR, or renal clearance, was calculated as the ratio: CLR=AURC/AUC.

human albumin = human albumin (Homo sapiens, UniProt P02768); test: Protein binding by isothermal titration microcalorimetry (ITC); conditions: for Calculated percent Binding to Human albumin: albumin 6×10^−4 M assumed
Sequence of human albumin (P02768 25-609): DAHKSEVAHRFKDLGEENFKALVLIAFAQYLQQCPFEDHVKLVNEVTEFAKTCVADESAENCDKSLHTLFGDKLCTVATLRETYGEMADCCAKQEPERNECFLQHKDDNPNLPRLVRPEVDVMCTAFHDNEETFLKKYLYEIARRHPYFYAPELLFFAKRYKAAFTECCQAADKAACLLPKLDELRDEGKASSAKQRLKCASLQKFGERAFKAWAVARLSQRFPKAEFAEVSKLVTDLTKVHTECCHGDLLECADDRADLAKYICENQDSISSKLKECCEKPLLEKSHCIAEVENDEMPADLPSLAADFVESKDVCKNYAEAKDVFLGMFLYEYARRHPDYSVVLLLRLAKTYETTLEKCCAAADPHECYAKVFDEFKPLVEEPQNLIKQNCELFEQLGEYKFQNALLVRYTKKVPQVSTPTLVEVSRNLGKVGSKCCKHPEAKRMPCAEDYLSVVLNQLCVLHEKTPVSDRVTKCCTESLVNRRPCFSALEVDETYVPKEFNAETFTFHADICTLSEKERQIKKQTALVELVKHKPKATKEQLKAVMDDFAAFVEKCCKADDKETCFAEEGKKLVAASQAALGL

rat albumin = rat albumin (Rattus norvegicus, UniProt P02770); test: Protein binding by ITC; conditions: pH 7.4
Sequence of rat albumin (P02770 25-608): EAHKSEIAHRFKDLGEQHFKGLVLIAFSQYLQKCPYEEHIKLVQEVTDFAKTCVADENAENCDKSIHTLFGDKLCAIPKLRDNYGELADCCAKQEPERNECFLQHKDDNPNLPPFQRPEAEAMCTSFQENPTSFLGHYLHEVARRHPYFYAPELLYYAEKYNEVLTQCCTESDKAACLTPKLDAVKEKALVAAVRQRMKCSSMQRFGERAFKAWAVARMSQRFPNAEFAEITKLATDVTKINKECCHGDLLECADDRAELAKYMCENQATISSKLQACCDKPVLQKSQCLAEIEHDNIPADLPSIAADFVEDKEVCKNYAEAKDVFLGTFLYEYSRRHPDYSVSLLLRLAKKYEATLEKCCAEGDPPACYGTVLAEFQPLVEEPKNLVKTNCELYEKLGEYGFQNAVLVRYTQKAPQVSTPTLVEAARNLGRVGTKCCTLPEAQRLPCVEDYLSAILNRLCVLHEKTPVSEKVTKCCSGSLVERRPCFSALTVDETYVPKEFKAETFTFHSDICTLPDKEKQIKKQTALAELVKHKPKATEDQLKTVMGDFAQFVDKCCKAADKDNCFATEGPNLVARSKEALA

[5] = Rat quantitative tissue distribution study; format: in vivo, Sprague-Dawley rats
Experimental: Quantitative tissue distribution studies were conducted to assess the tissue distribution of dalbavancin following a single IV infusion of dalbavancin to male rats.
All samples were analyzed by LSC.

[6] = system: N,N′-diacetyl-Lys-D-Ala-D-Ala; test: ITC of binding to tri-peptide cell-wall analog, with and without HSA
Experimental: Peptide concentrations were determined by weight.
Trans. R. Soc. Lond. Ser. A-Math. Phys. Eng. […] Wiley, (1998) p 103-111; and Cooper, A., Curr. Opin. Chem. Biol. (1999) 3, 557-563.

dipeptide (D-Ala-D-Ala) = test: ITC, preliminary experiments; format: binding; conditions: absence of serum proteins
streptococci = test: In vitro antibacterial activity; format: cell-based; conditions: including penicillin-resistant strains
bacteria = conditions: cited from earlier work
[7] = ESI-MS analysis of multimers in solution
Experimental: Experiments were performed using an Applied Biosystem API III+ mass spectrometer equipped with a TurboIonSpray source, a Triple Quadrupole analyzer, operating in positive ion mode.
The mass spectra were obtained in electrospray positive mode on a Finnigan LCQ^Deca ion trap instrument previously tuned and calibrated in electrospray mode using Ultramark 1621, caffeine and MRFA (L-metionyl-arginyl-phenilalanyl-arginine).

With CN[C@H]1C(=O)N[C@@H]2Cc3ccc(cc3)Oc3cc4cc(c3O[C@@H]3O[C@H](C(=O)O)[C@@H](O)[C@H](O)[C@H]3NC(=O)CCCCCCCCC(C)C)Oc3ccc(cc3Cl)[C@@H](O)[C@@H]3NC(=O)[C@H](NC(=O)[C@@H]4NC(=O)[C@@H](NC2=O)c2cc(cc(O)c2Cl)Oc2cc1ccc2O)c1ccc(O)c(c1)-c1c(O[C@H]2O[C@H](CO)[C@@H](O)[C@H](O)[C@@H]2O)cc(O)cc1[C@@H](C(=O)NCCCN(C)C)NC3=O [Dalbavancin] the Clinical success rate ([1]; Clinically evaluable at EOT, single-dose 1100 mg) was 13/16 (61.5) %, the Clinical success rate ([1]; Clinically evaluable at EOT, two-dose 1000/500 mg) was 16/17 (94.1) % and the Clinical success rate ([1]; ITT at EOT, single-dose dalbavancin 1100 mg IV day 1) was 15/20 (75.0) %. For the same molecule, the Clinical success rate ([1]; ITT at EOT, two-dose dalbavancin 1000 mg day 1 + 500 mg day 8 IV) was 19/21 (90.5) %, the Clinical success rate ([1]; ITT at FU, single-dose 1100 mg) was 12/20 (60.0) % and the Clinical success rate ([1]; ITT at FU, two-dose 1000/500 mg) was 19/21 (90.5) %. For the same molecule, the Clinical success rate ([1]; MITT at EOT, single-dose 1100 mg) was 10/14 (71.4) %, the Clinical success rate ([1]; MITT at EOT, two-dose 1000/500 mg) was 12/13 (92.3) % and the Clinical success rate ([1]; MITT at FU, single-dose 1100 mg) was 7/14 (50.0) %. For the same molecule, the Clinical success rate ([1]; MITT at FU, two-dose 1000/500 mg) was 12/13 (92.3) %, the “Clinical success rate at FU, patients with MRSA” value ([1]; single-dose dalbavancin) was 50% and the “Clinical success rate at FU, patients with MRSA” value ([1]; two-dose dalbavancin) was 80%. For the same molecule, the Clinical success rate ([1]; Microbiologically evaluable at EOT, single-dose 1100 mg) was 10/13 (76.9) %, the Clinical success rate ([1]; Microbiologically evaluable at EOT, two-dose 1000/500 mg) was 10/11 (90.9) % and the Clinical success rate ([1]; Microbiologically evaluable at FU, single-dose 1100 mg) was 6/11 (54.5) %. For the same molecule, the Clinical success rate ([1]; Microbiologically evaluable at FU, two-dose 1000/500 mg) was 10/11 (90.9) %, the “Clinical success rate, exploratory subanalysis” value ([1]; single-dose dalbavancin) was 58.3% and the “Clinical success rate, exploratory subanalysis” value ([1]; two-dose dalbavancin) was 93.8%. The “Dalbavancin MIC” value (Group B streptococcus; standard of care arm) was 2 (0.016) mg/L, the “Dalbavancin MIC” value (Group B streptococcus; two-dose arm) was 2 (0.016) mg/L and the “Dalbavancin MIC” value ([2]; single-dose arm) was 3 (0.016) mg/L. The “Dalbavancin MIC” value ([2]; standard of care arm) was 4 (0.016) mg/L, the “Dalbavancin MIC” value ([2]; two-dose arm) was 2 (0.016) mg/L and the “Dalbavancin MIC” value (S. aureus; single-dose arm (N = 14)) was 13 (0.12) mg/L. For the same molecule, the “Dalbavancin MIC range” value (S. aureus; standard of care arm (N = 14)) was 10 (0.016-0.25) mg/L, the “Dalbavancin MIC” value (S. aureus; two-dose arm (N = 13)) was 11 (0.12) mg/L and the “Dalbavancin MIC” value (Streptococcus pyogenes; standard of care arm) was 1 (0.016) mg/L. For the same molecule, the “Dalbavancin MIC” value (Streptococcus pyogenes; two-dose arm) was 1 (0.016) mg/L, the “Change in dalbavancin MIC of isolates that persisted” value [3] was “no change in dalbavancin MIC” and the “AURC (cumulative amount excreted in urine)” value ([4]; Mean, single 1000 mg IV) was 419 mg. For the same molecule, the CL ([4]; Mean, single 1000 mg IV) was 0.0431 ± 0.0074 L/h, the CLR ([4]; Mean, single 1000 mg IV) was 0.018 L/h and the Vz ([4]; Mean, single 1000 mg IV) was 16.0 L. The CLR ([4]; Min, single 1000 mg IV) was 0.0130 L/h, the “Peak concentration of dalbavancin in man” value ([4]; conversion of approximately 300 mg/L) was 165 µM and the Peak plasma concentrations ([4]; immediately following end of infusion, single 1000 mg IV) was “approximately 300 mg/L”. For the same molecule, the “Plasma concentrations maintained for at least seven days” value ([4]; single intravenous infusion of 1000 mg) was “above 45 mg/l”, the “Apparent binding affinity Ka” value (human albumin; 37° C., pH 7.4) was 1.33 (±0.15) ×10^5 M^−1 and the “Binding stoichiometry N (protein to dalbavancin)” value (human albumin; ITC fit, in all cases (all proteins tested), FIG. 2) was < 1. For the same molecule, the “Binding to human serum albumin” value (human albumin; across 1-500 μM dalbavancin) was “exceeds 98%”, the “Calculated percent Binding to Human albumin” value (from here on “Calculated percent Binding”) (human albumin; antibiotic 1 μM) was 98.8% and the “Calculated percent Binding” value (human albumin; antibiotic 10 μM) was 98.8%. The “Calculated percent Binding” value (human albumin; antibiotic 100 μM) was 98.7%, the “Calculated percent Binding” value (human albumin; antibiotic 165 μM) was 98.6% and the “Calculated percent Binding” value (human albumin; antibiotic 250 μM) was 98.5%. For the same molecule, the “Calculated percent Binding” value (human albumin; antibiotic 500 μM) was 98.0%, the “Binding stoichiometry antibiotic:protein” value (human albumin; binding stoichiometry modeling of ITC data) was “two dalbavancin molecules are bound to one molecule of protein” and the Free fraction (human albumin; human) was ~1%. The “Apparent binding affinity Ka” value (rat albumin; 25° C.) was 3.1 (±0.5) ×10^5 M^−1, the “Apparent binding affinity Ka” value (rat albumin; 37° C.) was 2.8 (±1.8) ×10^5 M^−1 and the “Dose recovered in the bile” value ([5]; bile duct cannulated rats, over 384 h after the dose) was ~11 % of the dose. For the same molecule, the “Concentrations of radioactivity in the CNS” value ([5]; healthy rats) was “low but detectable”, the “Time by which all tissues had quantifiable drug-derived radioactivity” value ([5]; male rats, single IV infusion 20 mg/kg) was ≤ 12 h and the “Skin penetration: drug-derived radioactivity in skin relative to plasma” value ([5]; rats) was “as high as or higher than in plasma”. The Tissue accumulation ([5]; rats, through 70 days) was “did not accumulate in any single tissue, organ, or blood cellular component”, the Kass ([6]; 10 ° C., [HSA] 0 μM) was 920000 M⁻¹ and 685000 M⁻¹ and 624000 M⁻¹ and 670000 M⁻¹ and the Kd ([6]; 10 ° C., [HSA] 0 μM, read-out: Kdiss) was 1.09 µM and 1.6 µM and 1.49 µM. The Kd ([6]; 10° C., absence of HSA, read-out: Average Kdiss) was ~1.4 µM, the “Weakening of binding affinity at HSA plateau relative to absence of HSA” value ([6]; 25° C.) was 10-12 × and the Kass ([6]; 25 ° C., [HSA] 0 μM) was 313000 M⁻¹ and 330000 M⁻¹ and 320000 M⁻¹ and 280000 M⁻¹ and 303000 M⁻¹ and 319000 M⁻¹ and 393000 M⁻¹. For the same molecule, the Kd ([6]; 25 ° C., [HSA] 0 μM, read-out: Kdiss) was 3.57 µM and 3.3 µM and 2.54 µM, the Kd ([6]; 25° C., absence of HSA (free dalbavancin), read-out: Average Kdiss) was ~3.1 µM and the Kass ([6]; 25 ° C., with HSA 34.2 μM) was 35000 M⁻¹. For the same molecule, the Kd ([6]; 25 ° C., with HSA 34.2 μM, read-out: Kdiss) was 28.6 µM, the Kd ([6]; 37° C., absence of HSA, read-out: Average Kdiss) was ~8.4 µM and the “Effect of HSA on solubility of dalbavancin” value ([6]; aqueous buffer pH 7.4 containing HSA) was “HSA increased the solubility of dalbavancin”. For the same molecule, the Kd ([6]; read-out: Apparent Kdiss, plateau level at high concentrations of HSA (dalbavancin bound to HSA), 25° C., HSA above 35 μM up to 600 μM, FIG. 11) was ~35 µM, the “Binding to dipeptide (D-Ala-D-Ala)” value (dipeptide (D-Ala-D-Ala)) was “no evidence of binding” and the “Activity relative to teicoplanin or vancomycin” value (streptococci) was “better activity against streptococci, including penicillin-resistant strains, than teicoplanin or vancomycin”. The “Concentrations known to be bactericidal” value (bacteria) was 4 to 32 mg/L, the “Population ratio of multimer to monomer: influence of ionic strength” value ([7]; 100 μg/mL, ammonium formate 5, 50, 100 mM pH 5, FIGS. 6-8) was “decrease in dalbavancin multimer to monomer population ratio” and the “Population ratio of multimer to monomer: influence of concentration” value ([7]; 20, 40, 60, and 80 μg/mL, FIG. 4) was “increases with increasing concentration”. For the same molecule, the Multimers in solution ([7]; dalbavancin 0.1 mg/ml in 8:2 water:isopropanol, teicoplanin 50 and 100 μg/mL in water) was “indicates the presence of dalbavancin multimers” and the “Population ratio of multimer to monomer: influence of pH” value ([7]; pH 2.5 to 5.5, FIG. 5) was “increases with increasing pH”.
